# From patent US7186728B2, “Methylene-4-azasteroids” (Schering AG, priority 2001, dated 2007)
# Test system: action of testosterone propionate (TP) on the growth of the seminal vesicle and prostate
# Assay: Antiandrogenic activity: inhibition of testosterone propionate (TP) action on accessory genital gland growth in castrated immature male rats
# Type: in vivo, rat
# Details: for Effects of testosterone propionate, TP, on the prostate and seminal vesicle (in words): castrated immature male rats, TP + compound; for Inhibition of the action of testosterone propionate (TP) on the growth of the prostate / Inhibition of the action of testosterone propionate (TP) on the growth of the seminal vesicle: sexually immature castrated male rats, TP 0.1 mg/animal/day s.c. + 5α-reductase inhibitor 1 mg/animal/day s.c., 7 days, difference vehicle controls and TP controls = 100%
# Method: Evaluation of antiandrogenic activity of the compounds of the invention was performed in castrated male rats (see FIGS. 1 to 5/table). Castrated immature male rats were treated for 7 days with testosterone propionate (TP) and the substances of the invention (0.1 mg of TP alone and/or 1 mg of 5α-reductase inhibitor/animal/day, s.s., n=5–10/group). The treatment with TP caused a severe increase in weight of the accessory genital glands (prostate and seminal vesicle). In the animals treated with the vehicle and with 5α-reductase inhibitor alone, the weights of the examined organs remained at low values. The substances of the invention exerted an inhibitory effect in the test systems selected. […] [table]
SMILES,"Effects of testosterone propionate, TP, on the prostate and seminal vesicle (in words)",Inhibition of the action of testosterone propionate (TP) on the growth of the prostate,Inhibition of the action of testosterone propionate (TP) on the growth of the seminal vesicle
CN1C(=O)CC[C@@H]2C3CC[C@]4(C)/C(=C/Cl)CCC4C3CC[C@H]21 (stereo partly drawn) [J 1879],appreciably reduced,34%,25%
CN1C(=O)CC[C@]2(C)C3CC[C@]4(C)/C(=C/Cl)CCC4C3CC[C@@H]12 (stereo partly drawn) [J 1924],appreciably reduced,39%,41%
